Assay results reported in patent US11787812B2, “Substituted pyrazolo[4,3-d]pyrimidines and imidazo[5,1 -f][1,2,4]triazines as androgen receptor and phosphodiesterase dual inhibitors” (ILDONG PHARMACEUTICAL CO., LTD., priority 2020, dated 2023).
Like-named read-outs stand apart in the source and are kept apart here.

Experiments:
human PDE-5A1 = human PDE-5A1 (Homo sapiens (Human), UniProt O76074); test: Human PDE-5A1 inhibition assay (fluorescence polarization, FAM-cGMP); format: biochemical; details: human PDE5A1, 100 nM FAM-cGMP, 60 minutes room temperature
Description: This example illustrates the in vitro inhibition of human PDE-5A1 by exemplary compounds of this disclosure (e.g., as described herein).
Sildenafil citrate (Catalog no. LKT-S3313, Axxora, San Diego, CA), Vardenafil hydrochloride trihydrate (Catalog no. SML2103, Sigma-Aldrich, St. Louis, MO), PDE Assay Buffer (Catalog no. 60393, BPS bioscience, San Diego, CA), PDE Binding Agent (Catalog no. 60390, BPS bioscience, San Diego, CA) and PDE Binding Agent Diluent (cGMP, Catalog no. 60392, BPS bioscience, San Diego, CA) were used for assays. Test compounds were supplied by Ildong Pharmaceuticals Co., Ltd.
The serial dilution of the compounds was first performed in 100% DMSO with the highest concentration at 1 mM and 0.1 mM. Each intermediate compound dilution (in 100% DMSO) will then get directly diluted 10× fold into assay buffer for 10% DMSO and 5 μL of the dilution was added to a 50 μL reaction so that the final concentration of DMSO is 1% in all reactions.
The enzymatic reactions were conducted at room temperature for 60 minutes in a 50 μL mixture containing PDE assay buffer, 100 nM FAM-cGMP, a PDE enzyme (Table 2) and the test compounds.
After enzymatic reaction, 100 μL of a binding solution (1:100 dilution of the binding agent with the binding agent diluent) was added to each reaction and the reaction was performed at room temperature for 60 minutes.
Fluorescence intensity was measured at excitation of 485 nm and an emission of 528 nm using a Tecan Infinite M1000 microplate reader.
PDE activity assays were performed in duplicate at each concentration. Fluorescence intensity is converted to fluorescence polarization using the Tecan Magellan6 software. The fluorescence polarization (FPt) in absence of the compound in each data set was defined as 100% activity. In the absence of PDE and the compound, the value fluorescent polarization (FPb) in each data set was defined as 0% activity. The percent activity in the presence of compound was calculated according to Equation 1:
[formula] where FP=the fluorescence polarization in the presence of the compound.
The values of % activity versus a series of compound concentrations were then plotted using non-linear regression analysis of Sigmoidal dose-response curve generated with Equation 2:
[formula] where Y=percent activity, B=minimum percent activity, T=maximum percent activity, X=logarithm of compound, and Hill Slope=slope factor or Hill coefficient. The IC50 value was determined by the concentration causing a half-maximal percent activity. Results

androgen receptor (AR) = androgen receptor (AR) (Homo sapiens (Human), UniProt P10275); test: Androgen receptor (AR) reporter assay, antagonist screen activated by R1881; format: cell-based; details: AR-UAS-bla GripTite 293 cells, antagonist mode, R1881 at EC80
Description: The protocols and results of this Example were carried out and obtained by Thermofisher Scientific.
Test compounds were received at 1000× (or greater) of the desired starting concentration in 100% DMSO. If compounds were supplied at greater that 1000× concentration, an initial dilution is made in 100% DMSO to bring the compounds to 1000× concentration. The 1000× test compounds were serially diluted (10 point ½-log increments) in 100% DMSO.
The Substrate Loading Solution consists of three Life Technologies reagents: Solution A (10 mM LiveBLAzer™-FRET B/G Substrate), Solution B and Solution C.
Androgen Receptor (AR)—Antagonist Screen, Activated by R1881
AR-UAS-bla GripTite™ 293 cells were thawed and resuspended in Assay Media (DMEM phenol red free, 2% CD-treated FBS, 0.1 mM NEAA, 1 mM Sodium Pyruvate, 100 U/mL/100 μg/mL Pen/Strep) to a concentration of 312,500 cells/mL. 4 μL of a 10× serial dilution of Cyproterone Acetate (control antagonist starting concentration, 3,160 nM) or compounds are added to appropriate wells of a Poly-D-Lysine assay plate. 32 μL of cell suspension was added to the wells and pre-incubated at 37° C./5% CO2 in a humidified incubator with compounds and control antagonist titration for 30 minutes. 4 μL of 10× control agonist R1881 at the pre-determined EC80 concentration was added to wells containing the control antagonist or compounds. The plate was incubated for 16-24 hours at 37° C./5% CO2 in a humidified incubator. 8 μL of 1 μM Substrate Loading Solution is added to each well and the plate was incubated for 2 hours at room temperature. The plate was read on a fluorescence plate reader (Tecan Safire^2).

Human androgen receptors = Human androgen receptors (Homo sapiens (Human), UniProt P10275, T878A); test: Androgen receptor (AR) radioligand binding assay
Description: Methods employed in this study have been adapted from the following literature procedure.
Human androgen receptors obtained from human LNCaP cells are used in modified HEPES buffer pH 7.4. […] Non-specific binding is estimated in the presence of 1 μM testosterone. […] (See, e.g., Traish, A. M et al., Binding of 7α, 17α-dimethyl-19-nortestosterone (Mibolerone) to androgen and progesterone receptors in human and animal tissues. Endocrinology. 118(4): 1327-1333, 1986).
Compounds are screened at 10 μM.
Where presented, IC50 values were determined by a non-linear, least squares regression analysis using MathIQ™ (ID Business Solutions Ltd., UK).

[1] = receptors from human LNCaP cells, 0.5 nM [3H]Methyltrienolone, 20 hours at 4° C., read-out: AR IC50

Chain of Human androgen receptors (P10275 whole entry T878A): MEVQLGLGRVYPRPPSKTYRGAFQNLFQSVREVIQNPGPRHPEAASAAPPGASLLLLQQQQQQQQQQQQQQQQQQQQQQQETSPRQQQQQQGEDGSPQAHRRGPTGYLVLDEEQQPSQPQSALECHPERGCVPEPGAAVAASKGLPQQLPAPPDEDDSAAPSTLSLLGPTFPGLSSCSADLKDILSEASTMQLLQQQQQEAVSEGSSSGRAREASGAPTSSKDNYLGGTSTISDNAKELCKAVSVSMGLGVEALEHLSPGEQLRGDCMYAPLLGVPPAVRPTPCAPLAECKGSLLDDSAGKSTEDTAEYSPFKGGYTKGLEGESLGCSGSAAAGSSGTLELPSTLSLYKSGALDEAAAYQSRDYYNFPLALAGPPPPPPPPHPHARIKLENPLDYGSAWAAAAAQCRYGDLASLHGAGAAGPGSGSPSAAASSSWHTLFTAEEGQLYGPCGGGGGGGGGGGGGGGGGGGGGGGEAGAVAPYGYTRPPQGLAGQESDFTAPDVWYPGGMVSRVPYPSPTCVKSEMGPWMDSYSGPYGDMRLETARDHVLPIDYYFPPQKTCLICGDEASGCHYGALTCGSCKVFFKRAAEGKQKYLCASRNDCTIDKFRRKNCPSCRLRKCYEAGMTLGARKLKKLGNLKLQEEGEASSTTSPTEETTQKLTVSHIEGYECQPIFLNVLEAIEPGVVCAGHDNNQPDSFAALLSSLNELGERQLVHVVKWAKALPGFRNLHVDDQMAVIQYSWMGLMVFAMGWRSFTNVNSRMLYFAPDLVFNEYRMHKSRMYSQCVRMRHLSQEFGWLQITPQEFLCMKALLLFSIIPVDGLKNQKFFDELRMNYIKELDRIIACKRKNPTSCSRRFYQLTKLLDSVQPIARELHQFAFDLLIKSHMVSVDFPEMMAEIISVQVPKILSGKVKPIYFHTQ
Chain of androgen receptor (AR) (P10275 other isoform, or with tags, fused parts or gaps): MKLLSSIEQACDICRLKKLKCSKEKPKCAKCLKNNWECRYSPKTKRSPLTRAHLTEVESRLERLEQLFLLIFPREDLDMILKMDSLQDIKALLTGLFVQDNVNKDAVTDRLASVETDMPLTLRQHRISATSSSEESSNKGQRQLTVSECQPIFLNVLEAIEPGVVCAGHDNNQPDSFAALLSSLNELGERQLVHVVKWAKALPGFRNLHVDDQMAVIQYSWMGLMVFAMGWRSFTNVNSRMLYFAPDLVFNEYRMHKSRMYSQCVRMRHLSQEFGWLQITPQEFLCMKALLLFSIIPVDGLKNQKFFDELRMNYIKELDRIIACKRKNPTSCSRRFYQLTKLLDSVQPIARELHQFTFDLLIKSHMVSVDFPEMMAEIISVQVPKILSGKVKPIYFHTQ

IC50 (Human androgen receptors; read-out: AR IC50)	Structure (SMILES)	IC50 (human PDE-5A1)	IC50 (androgen receptor (AR))	IC50 (Human androgen receptors; [1])	IC50 (Human androgen receptors)
–	CCCc1nc(C)c2c(=O)[nH]c(-c3cc(N4C(=S)N(c5ccc(C#N)c(C(F)(F)F)c5)C(=O)C4(C)C)ccc3OCC)nn12 [Compound 18, 4-(3-(4-ethoxy-3-(5-methyl-4-oxo-7-propyl-3,4-dihydroimidazo[5,1-f][1,2,4]triazin-2-yl)phenyl)-4,4-dimethyl-5-oxo-2-thioxoimidazolidin-1-yl)-2-(trifluoromethyl)benzonitrile]	≤ 10 nM	≤ 500 nM	< 50 nM	–
–	CCCc1nn(C)c2c(=O)[nH]c(-c3cc(N4C(=S)N(c5cnc(C#N)c(C(F)(F)F)c5)C(=O)C4(C)C)ccc3OCC)nc12 [Compound 19, 5-(3-(4-ethoxy-3-(1-methyl-7-oxo-3-propyl-6,7-dihydro-1H-pyrazolo[4,3-d]pyrimidin-5-yl)phenyl)-4,4-dimethyl-5-oxo-2-thioxoimidazolidin-1-yl)-3-(trifluoromethyl)picolinonitrile]	> 100 nM	500 to 1000 nM	> 200 nM	–
50 to 200 nM	CCCc1nc(C)c2c(=O)[nH]c(-c3cc(N4C(=S)N(c5cnc(C#N)c(C(F)(F)F)c5)C(=O)C4(C)C)ccc3OCC)nn12 [Compound 20, 5-(3-(4-ethoxy-3-(5-methyl-4-oxo-7-propyl-3,4-dihydroimidazo[5,1-f][1,2,4]triazin-2-yl)phenyl)-4,4-dimethyl-5-oxo-2-thioxoimidazolidin-1-yl)-3-(trifluoromethyl)picolinonitrile]	≤ 10 nM	≤ 500 nM	–	–
–	CCCc1nn(C)c2c(=O)[nH]c(-c3cc(N4C(=S)N(c5ccc(C#N)c(C(F)(F)F)c5)C(=O)C45CCC5)ccc3OCC)nc12 [Compound 21, 4-(5-(4-ethoxy-3-(1-methyl-7-oxo-3-propyl-6,7-dihydro-1H-pyrazolo[4,3-d]pyrimidin-5-yl)phenyl)-8-oxo-6-thioxo-5,7-diazaspiro[3.4]octan-7-yl)-2-(trifluoromethyl)benzonitrile]	> 100 nM	≤ 500 nM	> 200 nM	–
–	CCCc1nc(C)c2c(=O)[nH]c(-c3cc(N4C(=S)N(c5ccc(C#N)c(C(F)(F)F)c5)C(=O)C45CCC5)ccc3OCC)nn12 [Compound 22, 4-(5-(4-ethoxy-3-(5-methyl-4-oxo-7-propyl-3,4-dihydroimidazo[5,1-f][1,2,4]triazin-2-yl)phenyl)-8-oxo-6-thioxo-5,7-diazaspiro[3.4]octan-7-yl)-2-(trifluoromethyl)benzonitrile]	≤ 10 nM	≤ 500 nM	–	50 to 200 nM
–	CCCc1nn(C)c2c(=O)[nH]c(-c3cc(N4C(=S)N(c5cnc(C#N)c(C(F)(F)F)c5)C(=O)C45CCC5)ccc3OCC)nc12 [Compound 23, 5-(5-(4-ethoxy-3-(1-methyl-7-oxo-3-propyl-6,7-dihydro-1H-pyrazolo[4,3-d]pyrimidin-5-yl)phenyl)-8-oxo-6-thioxo-5,7-diazaspiro[3.4]octan-7-yl)-3-(trifluoromethyl)picolinonitrile]	> 100 nM	≤ 500 nM	> 200 nM	–
–	CCCc1nc(C)c2c(=O)[nH]c(-c3cc(N4C(=S)N(c5ccc(C#N)c(C(F)(F)F)c5)C(=O)C4C)ccc3OCC)nn12 (stereo not drawn) [Compound 26, 4-(3-(4-ethoxy-3-(5-methyl-4-oxo-7-propyl-3,4-dihydroimidazo[5,1-f][1,2,4]triazin-2-yl)phenyl)-4-methyl-5-oxo-2-thioxoimidazolidin-1-yl)-2-(trifluoromethyl)benzonitrile]	≤ 10 nM	> 100 nM	> 200 nM	–
–	CCCc1nc(C)c2c(=O)[nH]c(-c3cc(S(=O)(=O)NC4CN(c5ccc(C#N)c(C(F)(F)F)c5)C4)ccc3OCC)nn12 [Compound 29, N-(1-(4-cyano-3-(trifluoromethyl)phenyl)azetidin-3-yl)-4-ethoxy-3-(5-methyl-4-oxo-7-propyl-3,4-dihydroimidazo[5,1-f][1,2,4]triazin-2-yl)benzenesulfonamide]	≤ 10 nM	500 to 1000 nM	–	50 to 200 nM
–	CCCc1nc(C)c2c(=O)[nH]c(-c3cc(S(=O)(=O)NC4CCN(c5ccc(C#N)c(C(F)(F)F)c5)CC4)ccc3OCC)nn12 [Compound 30, N-(1-(4-cyano-3-(trifluoromethyl)phenyl)piperidin-4-yl)-4-ethoxy-3-(5-methyl-4-oxo-7-propyl-3,4-dihydroimidazo[5,1-f][1,2,4]triazin-2-yl)benzenesulfonamide]	≤ 10 nM	≤ 500 nM	< 50 nM	–
–	CCCc1nc(C)c2c(=O)[nH]c(-c3cc(S(=O)(=O)NC4CCN(c5ccc(C#N)c(C(F)(F)F)c5)C4)ccc3OCC)nn12 (stereo not drawn) [Compound 31, N-(1-(4-cyano-3-(trifluoromethyl)phenyl)pyrrolidin-3-yl)-4-ethoxy-3-(5-methyl-4-oxo-7-propyl-3,4-dihydroimidazo[5,1-f][1,2,4]triazin-2-yl)benzenesulfonamide]	≤ 10 nM	500 to 1000 nM	–	50 to 200 nM
–	CCCc1nc(C)c2c(=O)[nH]c(-c3cc(S(=O)(=O)NC4CCN(c5ccc(C#N)c(C(F)(F)F)c5)C4=O)ccc3OCC)nn12 (stereo not drawn) [Compound 32, N-(1-(4-cyano-3-(trifluoromethyl)phenyl)-2-oxopyrrolidin-3-yl)-4-ethoxy-3-(5-methyl-4-oxo-7-propyl-3,4-dihydroimidazo[5,1-f][1,2,4]triazin-2-yl)benzenesulfonamide]	≤ 10 nM	> 100 nM	> 200 nM	–
–	CCCc1nc(C)c2c(=O)[nH]c(-c3cc(S(=O)(=O)NC4CC(=O)N(c5ccc(C#N)c(C(F)(F)F)c5)C4)ccc3OCC)nn12 (stereo not drawn) [Compound 33, N-(1-(4-cyano-3-(trifluoromethyl)phenyl)-5-oxopyrrolidin-3-yl)-4-ethoxy-3-(5-methyl-4-oxo-7-propyl-3,4-dihydroimidazo[5,1-f][1,2,4]triazin-2-yl)benzenesulfonamide]	≤ 10 nM	> 100 nM	> 200 nM	–
–	CCCc1nc(C)c2c(=O)[nH]c(-c3cc(N4C(=S)N(c5ccc(C#N)c(C(F)(F)F)c5)C(=O)C45CCOC5)ccc3OCC)nn12 (stereo not drawn) [Compound 34, 4-(1-(4-ethoxy-3-(5-methyl-4-oxo-7-propyl-3,4-dihydroimidazo[5,1-f][1,2,4]triazin-2-yl)phenyl)-4-oxo-2-thioxo-7-oxa-1,3-diazaspiro[4.4]nonan-3-yl)-2-(trifluoromethyl)benzonitrile]	≤ 10 nM	≤ 500 nM	–	50 to 200 nM
